In patent US20130072509A1, “PTEROSTILBENE AND STATIN COMBINATION FOR TREATMENT OF METABOLIC DISEASE, CARDIOVASCULAR DISEASE, AND INFLAMMATION” (ChromaDex Inc., priority 2011, published 2013):
Read-outs that look alike come from different tables or passages of the source.

Columns and labels:
[1] = cited from earlier work; for bioavailability: in vivo
PPAR-alpha = target: T1, PPAR-alpha (Rattus norvegicus, UniProt P37230); details: cited from earlier work
T1 construct: endogenous in cells; host or cells: H4IIEC3 rat liver cells
T1 sequence (P37230 1-468): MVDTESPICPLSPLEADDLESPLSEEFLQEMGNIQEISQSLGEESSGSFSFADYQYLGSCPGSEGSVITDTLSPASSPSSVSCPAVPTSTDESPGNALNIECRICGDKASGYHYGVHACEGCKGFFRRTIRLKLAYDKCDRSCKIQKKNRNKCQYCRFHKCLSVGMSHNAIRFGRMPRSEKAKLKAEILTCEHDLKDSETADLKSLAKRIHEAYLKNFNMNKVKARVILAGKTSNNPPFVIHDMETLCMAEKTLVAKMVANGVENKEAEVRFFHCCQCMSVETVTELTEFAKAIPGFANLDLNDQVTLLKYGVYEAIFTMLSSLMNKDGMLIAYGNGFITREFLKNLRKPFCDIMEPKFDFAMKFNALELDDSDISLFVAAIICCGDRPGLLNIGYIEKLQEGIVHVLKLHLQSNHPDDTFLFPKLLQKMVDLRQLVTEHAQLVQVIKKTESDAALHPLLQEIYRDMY

rat smooth muscle cells = details: in vitro; cited from earlier work
CYP1B1 = target: T2, CYP1B1 (Homo sapiens, UniProt Q16678); details: human recombinant; cited from earlier work
T2 sequence (Q16678 1-543): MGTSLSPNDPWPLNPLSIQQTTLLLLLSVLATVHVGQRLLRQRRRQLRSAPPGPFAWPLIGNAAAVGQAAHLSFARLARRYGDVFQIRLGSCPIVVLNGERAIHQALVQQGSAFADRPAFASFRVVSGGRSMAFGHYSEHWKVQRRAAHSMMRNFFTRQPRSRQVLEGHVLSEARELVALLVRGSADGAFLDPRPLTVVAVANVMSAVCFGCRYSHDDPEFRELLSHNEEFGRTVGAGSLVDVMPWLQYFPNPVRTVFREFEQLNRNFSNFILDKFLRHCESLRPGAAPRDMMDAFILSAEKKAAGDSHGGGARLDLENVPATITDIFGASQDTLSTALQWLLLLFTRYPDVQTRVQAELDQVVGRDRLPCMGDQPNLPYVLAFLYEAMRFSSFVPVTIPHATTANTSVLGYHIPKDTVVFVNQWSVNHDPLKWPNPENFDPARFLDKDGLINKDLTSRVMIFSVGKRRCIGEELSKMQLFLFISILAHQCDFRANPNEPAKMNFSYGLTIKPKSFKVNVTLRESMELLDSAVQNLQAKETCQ

[2] = mice, 28-day subacute; 160 pound human equivalent doses of approximately 125 mg/day, 1.25 g/day and 12.5 g/day; cited from earlier work
CYP1A1 = target: T3, CYP1A1 (Homo sapiens, UniProt P04798); details: human recombinant; cited from earlier work
T3 sequence (P04798 1-512): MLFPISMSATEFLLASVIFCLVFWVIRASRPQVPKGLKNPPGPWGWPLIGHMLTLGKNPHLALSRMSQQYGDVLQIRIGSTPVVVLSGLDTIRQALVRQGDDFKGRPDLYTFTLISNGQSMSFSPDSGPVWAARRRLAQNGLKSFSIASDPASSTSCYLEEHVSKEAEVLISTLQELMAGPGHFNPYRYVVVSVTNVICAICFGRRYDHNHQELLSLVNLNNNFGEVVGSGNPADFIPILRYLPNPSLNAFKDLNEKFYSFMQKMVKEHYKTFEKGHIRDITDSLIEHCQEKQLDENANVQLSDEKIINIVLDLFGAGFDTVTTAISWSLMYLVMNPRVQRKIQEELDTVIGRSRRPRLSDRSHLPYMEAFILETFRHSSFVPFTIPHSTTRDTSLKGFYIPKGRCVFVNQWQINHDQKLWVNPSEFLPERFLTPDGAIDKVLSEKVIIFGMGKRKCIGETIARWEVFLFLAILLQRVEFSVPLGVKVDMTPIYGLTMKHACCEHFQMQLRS

[3] = Human clinical trial in dyslipidemia patients: lipids and blood pressure; type: in vivo
Description: The following is a general study design for human clinical trial to assess efficacy of pterostilbene, in combination with a statin, to lower cholesterol and/or lower blood pressure, among other measured endpoints including markers for oxidative stress. The study type is interventional: a randomized, double-blind, placebo controlled study. Endpoint Classification: Safety/Efficacy Study.
The purpose of this study is to evaluate whether pterostilbene alone, or a combination of pterostilbene and a statin compound, will help control cholesterol and blood pressure, as well as improve markers for oxidative stress in patients with dyslipidemia meeting inclusion criteria. The investigators will assess the safety of pterostilbene in these patients. Further, 33% of all subjects, spread randomly across all study groups, will be undergoing concurrent statin therapy but still satisfy the inclusion criteria of a previous TC≧200 mg/dL, and/or a LDL-C≧100 mg/dL.
Sixty subjects, divided into three groups: 20 per study group. Ages eligible for study: 18 to 88 years, both genders. No healthy volunteers accepted. Inclusion criteria: patients ≧18 years of age with a previous TC≧200 mg/dL, and/or a LDL-C≧100 mg/dL on either no therapy or stable therapy. Any concomitant cholesterol medication must be at a stable dose for at least 2 months prior to baseline laboratory and not listed in the exclusion criteria. Exclusion criteria: patients with significant hepatic, renal or gastrointestinal tract disease, receiving thiazolidinediones or fibric acid derivatives, current overt cardiovascular disease, women of reproductive potential not receiving birth control, and pregnant/nursing women.
Evaluation Criteria for clinical measurement: 1. Primary outcome measures: lipid laboratory markers (i.e., change in baseline TC, LDL-C, triglycerides (TG), HDL-C, non-HDL-C); 2. Secondary outcome measures: blood pressure (i.e., change in baseline systolic blood pressure and/or diastolic blood pressure); basic metabolic panel; AST (aspartate aminotransferase); ALT (alanine aminotransferase); and/or oxidative stress markers (i.e., change in baseline urine-derived markers of stress (e.g., isoprostanes: iPF2-Alpha-III/creat; iPF2-Alpha-VI/creat; 2,3 Dinor-iPF2-Alpha-III/creat)).
Subjects will be divided into three groups or arms: (1) high dose pterostilbene, 125 mg twice daily by mouth for 6 to 8 weeks; (2) low dose pterostilbene, 50 mg twice daily by mouth for 6 to 8 weeks; (3) matching placebo taken twice daily by mouth for 6 to 8 weeks; either one hour before or two hours after a meal. Further, as stated above, 33% of all subjects, spread randomly across all study groups, will be undergoing concurrent statin therapy. […]

H4IIEC3 rat liver cells = details: 100 μM; cited from earlier work
[4] = 100 μM, H4IIEC3 rat liver cells
[5] = after 8 weeks, oral twice daily, pterostilbene alone

Compound | half life t1/2 in blood [1] | bioavailability [1] | PPAR-alpha activation over the control (PPAR-alpha; [4]) | PPAR-alpha activation relative to 100 μM of ciprofibrate (PPAR-alpha; [4]) | PPAR-alpha activation over the control (PPAR-alpha; 300 μM, H4IIEC3 rat liver cells) | PPAR-alpha activation (in words) (PPAR-alpha; study of a group of similar stilbenes, in a manner similar to ciprofibrate) | proliferation of rat smooth muscle cells (rat smooth muscle cells) | CYP1B1 inhibition (CYP1B1) | local or systemic toxicity [2] | CYP1A1 inhibition (CYP1A1) | change in LDL-C level [3, 5] | change in TC level [3, 5] | reduction in diastolic blood pressure ([3]; high dose (250 mg daily), including patients receiving a statin, p<0.001) | reduction in systolic blood pressure ([3]; high dose (250 mg daily), including patients receiving a statin, p<0.01) | Toxicity to cells (H4IIEC3 rat liver cells)
COc1cc(/C=C/c2ccc(O)cc2)cc(OC)c1 [pterostilbene, 3,5-dimethoxy-4′-hydroxy-trans-stilbene] | 74 to 105 min | orally bioavailable | 8 fold | ~2 fold | 14 fold | activated PPAR-alpha | inhibit the proliferation | shown to inhibit | no local or systemic toxicity | shown to inhibit | slight increases | slight increases | −7.3 mmHg | −7.8 mmHg | 
Oc1ccc(C=Cc2cc(O)cc(O)c2)cc1 [resveratrol, reference compound] | 10 to 14 min | poor bioavailability |  |  |  |  |  |  |  |  |  |  |  |  | toxic to cells
